Experimental data from patent publication US7129218B2, “Use of rhamnolipids in wound healing, treatment and prevention of gum disease and periodontal regeneration” (Paradigm Biomedical, Inc., priority 1999, dated 2006).

Tests used:
burn wounds = assay: Burn wounds, 7% body surface, topical treatment (rats); format: in vivo, Sprague-Dawley rats; details: for mean value of collagen tissue: histopathology day 45; for mean value of collagen concentration relative to placebo group 1 D taken as 100%: day 45
Description: The wounding of animals was performed according to the Protocol for Animal Use and Care at the University of California-Davis (hereafter UC-Davis). The entire animal protocol required 70 Sprague-Dawley rats: 30 rats for incision wounds and 40 rats for burn wounds. Among them 36 rats were burned over 7% of their skin and 4 rats were burned over 15% of their skin. Incision wounds of whole skin and burn wounds were treated topically with 2 test doses of the pharmaceutical preparation of di-rhamnolipid BAC-3. […] D.E.A. Hamburg); 23.8 g Lanolinum (Producer I.O.I. Hamburg); 4.7 g Cholesterin (Producer: Solvay, Wiena, Austria); Water Number: 320); or b). 1%; 0.1% active rhamnolipid (BAC-3) with antiseptic (chlorhexidine hydrochloride-[…]). Eucerin with BAC-3 was administrated twice daily during healing. The same experiment had one control group without the treatment, and one control group which was treated with ointment+1% chlorhexidine hydrochloride. During the experiment, animal body weight and behavior was checked every third day, and photographs were taken periodically. Burn wounds. The consecutive burn wounds should ideally be identical in depth and extent. The standard method defines the size and location of the burn wound, the temperature gradient, duration of exposure and method of applying the burn. The wound surface areas tested were of two different sizes. One size to 7% of the body surface, which enables one to compare the rate of wound healing with different percentage of BAC-3 and the other size to 15% of the body surface, which is a sufficient size so that healing could not occur by contraction alone. On the other hand, the total wound surface area should not cause major systematic problems. The latter can be concluded from undisturbed weight gain of the animals. The standard animal burn was performed by techniques and device described by Walker. The burning devices were prepared using a model device ordered from U.S. Army Surgical Research Unit, Experimental Surgery, Army Medical Center, Fort Sam Houston, Tex. 78234. […] The surface of the skin was measured for every animal using Mech's formula: A=kW^2/3; A=surface area in cm^2; W=body weight in grams; k=10. Method of burning. Each animal was anesthetized with sodium pentobarbital administered i/p (5 mg/25 g). (Producer: Veterinary Laboratory Inc. Lenexa, Kans.). The hair over the dorsum was clipped with animal clippers. The animal was placed supine in the burning device and the extremities were tied; the malleable retractor was placed over the animal and secured snugly with plastic straps. The entire device was then picked up by the retractor ends with forceps and the exposed area was immersed in boiling water. Ten seconds of exposure was sufficient to produce a full-thickness burn. On removal from the water, the dorsum was quickly dried by rolling on a towel and the animal was released and individually caged. This procedure produced a uniform burn with sharp margins. On post burn days 7, 14 and 45, animals were sacrificed by overdose of sodium pentobarbital and skin specimens were taken for histopathology. Specimens included the wound bed as well as the healthy skin of the wound margins. The specimens were fixed, and two stainings were routinely performed: Hematoxylin-Eosin (H&E) for microscopic evaluation, Verhoeff's staining for a better visualization of the crust and the regenerating dermis, and the alpha smooth muscle acting to identify the myofibroblasts. Microscopic findings were interpreted by a veterinarian pathologist. During the microscopic and macroscopic observations, four wound healing parameters were evaluated: crust formation, re-epithelialization, formation of granulation tissue and inflammation. 36 rats were divided into 6 groups. Each group had six animals. After burning rats according to the above-described procedure, each rat was caged individually. […]

incision wounds = assay: Tensile strength of incision wounds (rats); format: in vivo, Sprague-Dawley rats; details: 0.1% BAC-3; 21 days after wounding; p<0.05 by ANOVA; FIG. 3
Description: The wounding of animals was performed according to the Protocol for Animal Use and Care at the University of California-Davis (hereafter UC-Davis). The entire animal protocol required 70 Sprague-Dawley rats: 30 rats for incision wounds and 40 rats for burn wounds. Among them 36 rats were burned over 7% of their skin and 4 rats were burned over 15% of their skin. Incision wounds of whole skin and burn wounds were treated topically with 2 test doses of the pharmaceutical preparation of di-rhamnolipid BAC-3. Each dose contained a). 1%, and 0.1% of active di-rhamnolipid (BAC-3) in eucerin (eucerin=71.5 g Vaselinum album (Producer: D.E.A. Hamburg); 23.8 g Lanolinum (Producer I.O.I. Hamburg); 4.7 g Cholesterin (Producer: Solvay, Wiena, Austria); Water Number: 320); or b). 1%; 0.1% active rhamnolipid (BAC-3) with antiseptic (chlorhexidine hydrochloride-PLIVA-Zagreb). Eucerin with BAC-3 was administrated twice daily during healing. The same experiment had one control group without the treatment, and one control group which was treated with ointment+1% chlorhexidine hydrochloride. […]
Tensile Strength Determination. […] The tensile strength of healthy skin was measured in killed animals from each group.
Effect of BAC-3 on Tensile Strength of Incision Wounds (FIG. 3) with and without chlorhexidine hydrochloride. The tensile strength of incision wounds was measured 21 days after wounding. […]

Compound: CCCCCCCC(CC(=O)O)OC(=O)CC(CCCCCCC)OC1OC(C)C(O)C(O)C1OC1OC(C)C(O)C(O)C1O [BAC-3, (α-L-rhamnopyranosyl-(1,2)-α-L-rhamnopyranosyl)-3-hyroxydecanoyl-3-hydroxydecanoic acid]
- body weights among the treatment groups (burn wounds; 1% and 0.1% BAC-3 in eucerin vs vehicle, 45 days): no significant differences
- rate of burn wound closure (decrease in wound size) vs vehicle alone (burn wounds; 7% burn, 0.1% BAC-3 in eucerin twice daily, no chlorhexidine, FIG. 1): significantly faster
- burn wound size (distance across wound edges) vs vehicle alone (burn wounds; 7% burn, 0.1% BAC-3 in eucerin, days 14, 21 and 28, p<0.05 by ANOVA, FIG. 2): significantly smaller
- crust formation, difference between groups (burn wounds; 7% burn, BAC-3 1% or 0.1% ointment with or without chlorhexidine vs placebo, 45 days): no significant differences
- granulation tissue (burn wounds; 7% burn, group 1-A, 1% BAC-3 in ointment twice daily): prominently developed
- re-epithelization in the middle part of the burn wounds (burn wounds; 7% burn, group 1-B, 0.1% BAC-3 in ointment twice daily): faster
- mean value of collagen tissue (burn wounds; 7% burn, group 1 A, 1% BAC-3 ointment, no chlorhexidine): 8.48 mm^2
- mean value of collagen tissue (burn wounds; 7% burn, group 1 B, 0.1% BAC-3 ointment, no chlorhexidine): 5.15 mm^2
- granulation tissue (burn wounds; 7% burn, group 2-A, 1% BAC-3 in ointment plus 1% chlorhexidine hydrochloride twice daily): prominently developed
- re-epithelization in the middle part of the burn wounds (burn wounds; 7% burn, group 2-B, 0.1% BAC-3 in ointment plus 1% chlorhexidine hydrochloride twice daily): faster
- hair growth during the healing period (burn wounds; group 1-A, 1% BAC-3 in ointment, compared to the other groups): very prominent
- mean value of collagen concentration relative to placebo group 1 D taken as 100% (burn wounds; group 1 A, 1% BAC-3): 131.26%
- mean value of collagen concentration relative to placebo group 1 D taken as 100% (burn wounds; group 1 B, 0.1% BAC-3): 79.72%
- tensile strength of incision wounds vs corresponding vehicle (incision wounds): significantly lower
